We go through 28 compounds from US10377753B2, “Substituted 4-azaindoles and their use as GluN2B receptor modulators” (Janssen Pharmaceutica NV, priority 2015, dated 2019).

Structures can show the parent of a compound that is named as a salt.

cloned human NR1/NR2B ion channels, sequence (Q13224 27-1484, other chains not shown): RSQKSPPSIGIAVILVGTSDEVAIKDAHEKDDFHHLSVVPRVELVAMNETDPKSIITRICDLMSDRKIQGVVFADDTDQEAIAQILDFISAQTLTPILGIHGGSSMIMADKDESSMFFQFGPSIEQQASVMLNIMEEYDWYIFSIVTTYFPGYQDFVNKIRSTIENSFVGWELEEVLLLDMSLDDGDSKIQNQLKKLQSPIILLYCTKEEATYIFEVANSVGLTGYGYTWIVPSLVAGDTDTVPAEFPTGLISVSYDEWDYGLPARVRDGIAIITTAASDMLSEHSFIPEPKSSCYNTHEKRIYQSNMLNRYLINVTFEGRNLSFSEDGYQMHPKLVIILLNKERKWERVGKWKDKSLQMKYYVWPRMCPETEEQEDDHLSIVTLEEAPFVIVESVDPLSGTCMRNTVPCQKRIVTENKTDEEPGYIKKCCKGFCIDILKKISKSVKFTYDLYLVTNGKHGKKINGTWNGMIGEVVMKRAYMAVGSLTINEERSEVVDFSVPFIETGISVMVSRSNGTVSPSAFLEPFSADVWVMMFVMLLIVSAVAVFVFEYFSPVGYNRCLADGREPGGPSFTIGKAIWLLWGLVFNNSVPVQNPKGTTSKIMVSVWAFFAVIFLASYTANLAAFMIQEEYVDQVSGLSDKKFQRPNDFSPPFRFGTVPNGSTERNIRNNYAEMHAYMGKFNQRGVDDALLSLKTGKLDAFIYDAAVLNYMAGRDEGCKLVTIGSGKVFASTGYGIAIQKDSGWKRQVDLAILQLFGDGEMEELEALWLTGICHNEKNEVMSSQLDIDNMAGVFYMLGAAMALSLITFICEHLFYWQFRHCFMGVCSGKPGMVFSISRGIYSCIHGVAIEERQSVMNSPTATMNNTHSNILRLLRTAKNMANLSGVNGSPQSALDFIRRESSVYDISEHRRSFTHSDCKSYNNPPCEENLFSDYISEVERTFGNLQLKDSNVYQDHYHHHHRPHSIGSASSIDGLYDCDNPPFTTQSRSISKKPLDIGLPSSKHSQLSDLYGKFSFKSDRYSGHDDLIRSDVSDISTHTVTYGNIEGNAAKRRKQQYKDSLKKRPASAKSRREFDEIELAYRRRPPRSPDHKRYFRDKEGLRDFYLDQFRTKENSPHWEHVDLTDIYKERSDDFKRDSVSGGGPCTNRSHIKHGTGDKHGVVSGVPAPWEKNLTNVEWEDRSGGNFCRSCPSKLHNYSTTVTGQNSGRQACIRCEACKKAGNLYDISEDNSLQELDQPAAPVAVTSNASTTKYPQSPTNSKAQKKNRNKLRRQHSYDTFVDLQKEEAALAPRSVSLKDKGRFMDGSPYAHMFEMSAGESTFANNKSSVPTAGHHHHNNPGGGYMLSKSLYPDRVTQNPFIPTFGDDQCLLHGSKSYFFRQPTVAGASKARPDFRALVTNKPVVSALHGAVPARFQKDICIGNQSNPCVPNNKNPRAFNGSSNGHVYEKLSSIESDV

This assay concerns the target cloned human NR1/NR2B ion channels (Homo sapiens (Human), UniProt Q05586+Q13224). Kind of assay: HNR2BC: effects of test articles on cloned human NR1/NR2B ion channels expressed in mammalian cells (FLIPR calcium flux). The assay is classed as cell-based. The settings on record: cloned human NR1/NR2B, Table 5. An outline of the steps: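 In a stable Tet-On-induced cell line expressing human GluN1/GluN2B, Calcium 5-loaded cells were preincubated 5 min with compound, then stimulated 5 min with glutamate at ~EC80 plus 10 μM glycine, in pH 7.4 HEPES buffer. FLIPR calcium fluorescence was normalized to control wells.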
(A change in cytosolic calcium serves as a functional read-out for many receptors and channels.)
Broadly, the IC50 is the point on the concentration scale where inhibition reaches its midpoint. For the compound `CN(C)C(=O)Cn1cc(Cl)c2ncc(-c3ccc(F)c(F)c3)cc21` [Example 147, 2-[3-Chloro-6-(3,4-difluorophenyl)pyrrolo[3,2-b]pyridin-1-yl]-N,N-dimethyl-acetamide], the IC50 is 50.1 nM.

In the case of `CN(C)C(=O)Cn1cc(Cl)c2ncc(-c3cc(F)cc(F)c3)cc21` [Example 148, 2-[3-Chloro-6-(3,5-difluorophenyl)pyrrolo[3,2-b]pyridin-1-yl]-N,N-dimethyl-acetamide], the IC50 was 50.1 nM.

As for `Cc1csc(-c2cnc3c(Cl)cn(CC(=O)N(C)C)c3c2)c1` [Example 149, 2-[3-Chloro-6-(4-methyl-2-thienyl)pyrrolo[3,2-b]pyridin-1-yl]-N,N-dimethyl-acetamide], the IC50 is 50.1 nM.

Broadly, the pIC50 is the IC50 on a negative log10 scale, so that one unit is a factor of ten. As for `CN(C)C(=O)Cn1cc(Cl)c2ncc(-c3cccc(C(F)F)c3)cc21` [Example 150, 2-[3-Chloro-6-[3-(difluoromethyl)phenyl]pyrrolo[3,2-b]pyridin-1-yl]-N,N-dimethyl-acetamide], the pIC50 is listed as 7.3.

Turning to `CCc1cccc(-c2cnc3c(Cl)cn(CC(=O)N(C)C)c3c2)c1` [Example 151, 2-[3-Chloro-6-(3-ethylphenyl)pyrrolo[3,2-b]pyridin-1-yl]-N,N-dimethyl-acetamide], the 50% inhibitory concentration (IC50) was 79.4 nM.

As for `CN(C)C(=O)Cn1cc(Cl)c2ncc(-c3cc(F)c(F)c(F)c3)cc21` [Example 152, 2-[3-Chloro-6-(3,4,5-trifluorophenyl)pyrrolo[3,2-b]pyridin-1-yl]-N,N-dimethyl-acetamide], the half-inhibitory concentration (IC50) is 100 nM.

Consider `Cc1csc(-c2cnc3ccn(CC(=O)NC4CC4)c3c2)c1` [Example 153, N-Cyclopropyl-2-[6-(4-methyl-2-thienyl)pyrrolo[3,2-b]pyridin-1-yl]acetamide trifluoroacetate salt], for which the IC50 is 63.1 nM.

On to `Cc1cccc(-c2cnc3ccn(CC(=O)NC4CC4)c3c2)c1C` [Example 154, N-Cyclopropyl-2-[6-(2,3-dimethylphenyl)pyrrolo[3,2-b]pyridin-1-yl]acetamide trifluoroacetate salt], for which the concentration for half-maximal inhibition (IC50) is 398 nM.

Regarding `Cc1cccc(-c2cnc3ccn(CC(=O)NC4CC4)c3c2)c1` [Example 155, N-Cyclopropyl-2-[6-(m-tolyl)pyrrolo[3,2-b]pyridin-1-yl]acetamide trifluoroacetate salt], the IC50 was 251 nM.

As to `O=C(Cn1ccc2ncc(-c3ccc(Cl)c(Cl)c3)cc21)NC1CC1` [Example 156, N-Cyclopropyl-2-[6-(3,4-dichlorophenyl)pyrrolo[3,2-b]pyridin-1-yl]acetamide trifluoroacetate salt], the IC50 is 200 nM.

Regarding `Cc1c(-c2cnc3ccn(CC(=O)NC4CC4)c3c2)cccc1C(F)(F)F` [Example 157, N-Cyclopropyl-2-[6-[2-methyl-3-(trifluoromethyl)phenyl]pyrrolo[3,2-b]pyridin-1-yl]acetamide trifluoroacetate salt], the IC50 is 251 nM.

Consider `O=C(Cn1ccc2ncc(-c3ccccc3)cc21)NC1CC1` [Example 158, N-Cyclopropyl-2-(6-phenylpyrrolo[3,2-b]pyridin-1-yl)acetamide trifluoroacetate salt], for which the half-maximal inhibitory concentration (IC50) was 631 nM.

Regarding `Cc1c(F)ccc(-c2cnc3ccn(CC(=O)NC4CC4)c3c2)c1C` [Example 159, N-Cyclopropyl-2-[6-(4-fluoro-2,3-dimethyl-phenyl)pyrrolo[3,2-b]pyridin-1-yl]acetamide trifluoroacetate salt], the half-inhibitory concentration (IC50) is 251 nM.

In the case of `Cc1ccccc1-c1cnc2ccn(CC(=O)NC3CC3)c2c1` [Example 160, N-Cyclopropyl-2-[6-(o-tolyl)pyrrolo[3,2-b]pyridin-1-yl]acetamide], the half-inhibitory concentration (IC50) was 200 nM.

As for `Cc1cc(F)ccc1-c1cnc2ccn(CC(=O)NC3CC3)c2c1` [Example 161, N-Cyclopropyl-2-[6-(4-fluoro-2-methyl-phenyl)pyrrolo[3,2-b]pyridin-1-yl]acetamide trifluoroacetate salt], the IC50 was 200 nM.

For `Cc1ccccc1-c1cnc2ccn(CC(=O)N3CCC3)c2c1` [Example 162, 1-(Azetidin-1-yl)-2-[6-(o-tolyl)pyrrolo[3,2-b]pyridin-1-yl]ethanone trifluoroacetate salt], the IC50 is 100 nM.

Regarding `Cc1cc(F)ccc1-c1cnc2ccn(CC(=O)N3CCC3)c2c1` [Example 163, 1-(Azetidin-1-yl)-2-[6-(4-fluoro-2-methyl-phenyl)pyrrolo[3,2-b]pyridin-1-yl]ethanone trifluoroacetate salt], the IC50 is 79.4 nM.

`Cc1c(F)ccc(-c2cnc3ccn(CC(=O)N4CCC4)c3c2)c1C` [Example 164, 1-(Azetidin-1-yl)-2-[6-(4-fluoro-2,3-dimethyl-phenyl)pyrrolo[3,2-b]pyridin-1-yl]ethanone trifluoroacetate salt]: the IC50 was 63.1 nM.

Consider `Cc1cccc(-c2cnc3ccn(CC(=O)N4CCC4)c3c2)c1C` [Example 165, 1-(Azetidin-1-yl)-2-[6-(2,3-dimethylphenyl)pyrrolo[3,2-b]pyridin-1-yl]ethanone trifluoroacetate salt], for which the IC50 is 63.1 nM.

For `Cc1c(-c2cnc3ccn(CC(=O)N4CCC4)c3c2)cccc1C(F)(F)F` [Example 167, 1-(Azetidin-1-yl)-2-[6-[2-methyl-3-(trifluoromethyl)phenyl]pyrrolo[3,2-b]pyridin-1-yl]ethanone trifluoroacetate salt], the IC50 is 39.8 nM.

As to `O=C(Cn1ccc2ncc(-c3ccc(F)cc3)cc21)NC1CC1` [Example 168, N-Cyclopropyl-2-[6-(4-fluorophenyl)pyrrolo[3,2-b]pyridin-1-yl]acetamide], the 50% inhibitory concentration (IC50) is 251 nM.

`Cc1cc(-c2cnc3c(C)cn(CC(=O)N4CCC4)c3c2)ccc1F` [Example 169, 1-(Azetidin-1-yl)-2-[6-(4-fluoro-3-methyl-phenyl)-3-methyl-pyrrolo[3,2-b]pyridin-1-yl]ethanone trifluoroacetate salt]: the concentration for half-maximal inhibition (IC50) was 200 nM.

As for `CCCCn1ccc2ncc(-c3ccc(F)c(C)c3)cc21` [Example 170, 1-Butyl-6-(4-fluoro-3-methyl-phenyl)pyrrolo[3,2-b]pyridine trifluoroacetate salt], the 50% inhibitory concentration (IC50) is 316 nM.

Regarding `Cc1cc(-c2cnc3ccn(CCC(C)C)c3c2)ccc1F` [Example 171, 6-(4-Fluoro-3-methyl-phenyl)-1-isopentyl-pyrrolo[3,2-b]pyridine trifluoroacetate salt], the IC50 was 200 nM.

As to `Cc1cc(-c2cnc3ccn(Cc4cccnc4)c3c2)ccc1F` [Example 172, 6-(4-Fluoro-3-methyl-phenyl)-1-(3-pyridylmethyl)pyrrolo[3,2-b]pyridine trifluoroacetate salt], the IC50 was 794 nM.

For `Cc1cc(-c2cnc3ccn(CC4CC4)c3c2)ccc1F` [Example 174, 1-(Cyclopropylmethyl)-6-(4-fluoro-3-methyl-phenyl)pyrrolo[3,2-b]pyridine trifluoroacetate salt], the IC50 was 158 nM.

For the compound `Cc1cc(-c2cnc3c(Cl)cn(CC(=O)NC4CC4)c3c2)ccc1F` [Example 176, 2-[3-Chloro-6-(4-fluoro-3-methyl-phenyl)pyrrolo[3,2-b]pyridin-1-yl]-N-cyclopropyl-acetamide trifluoroacetate salt], the concentration for half-maximal inhibition (IC50) was 31.6 nM.

In the case of `Cc1cc(-c2cnc3ccn(Cc4ccncc4)c3c2)ccc1F` [Example 179, 6-(4-Fluoro-3-methyl-phenyl)-1-(4-pyridylmethyl)pyrrolo[3,2-b]pyridine trifluoroacetate salt], the half-maximal inhibitory concentration (IC50) is 50.1 nM.
